Tested on: test plant species
Experiment: Post-emergent herbicidal activity test (greenhouse, foliar spray, visual growth reduction)
Assay type: in vivo
Conditions: post-emergence, 336 h, ALOMY: blackgrass (Alopecurus myosuroides), 140 g ai/ha, 14 days after application, read-out: Visual Growth Reduction (%) 14 Days After Application, ALOMY
Procedure, shortened: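 Visual percent injury (0-100) rated 14 d after treatment, relative to nontreated and solvent-blank plants. Test plants at first or second true leaf stage received an overhead track-sprayer application at 187 L/ha. Compounds were formulated in aqueous acetone/DMSO carrier containing crop oil concentrate and X-77 surfactant.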

SMILES	pest or weed control at 140 g/ha
C#Cc1ccc(-c2ccc(Cl)c(C(=O)OC)n2)c(Cl)c1 [F18, Methyl 3-chloro-6-(2-chloro-4-ethynylphenyl) picolinate]	0 to 29%
COC(=O)c1nc(-c2ccc(C(F)(F)F)cc2Cl)ccc1C [F53, Methyl 6-(2-chloro-4-(trifluoromethyl)phenyl)-3-methylpicolinate]	60 to 74%

Same assay, conditions: post-emergence, 336 h, AMARE: redroot pigweed (Amaranthus retroflexus), 140 g ai/ha, 14 days after application, read-out: Visual Growth Reduction (%) 14 Days After Application, AMARE

SMILES	pest or weed control at 140 g/ha
C#Cc1ccc(-c2ccc(Cl)c(C(=O)OC)n2)c(Cl)c1 [F18, Methyl 3-chloro-6-(2-chloro-4-ethynylphenyl) picolinate]	0 to 29%
COC(=O)c1nc(-c2ccc(C(F)(F)F)cc2Cl)ccc1C [F53, Methyl 6-(2-chloro-4-(trifluoromethyl)phenyl)-3-methylpicolinate]	95 to 100%

Same assay, conditions: post-emergence, 336 h, AVEFA: wild oat (Avena fatua), 140 g ai/ha, 14 days after application, read-out: Visual Growth Reduction (%) 14 Days After Application, AVEFA

SMILES	pest or weed control at 140 g/ha
C#Cc1ccc(-c2ccc(Cl)c(C(=O)OC)n2)c(Cl)c1 [F18, Methyl 3-chloro-6-(2-chloro-4-ethynylphenyl) picolinate]	0 to 29%
COC(=O)c1nc(-c2ccc(C(F)(F)F)cc2Cl)ccc1C [F53, Methyl 6-(2-chloro-4-(trifluoromethyl)phenyl)-3-methylpicolinate]	75 to 84%

Same assay, conditions: post-emergence, 336 h, CHEAL: lambsquarters (Chenopodium album), 140 g ai/ha, 14 days after application, read-out: Visual Growth Reduction (%) 14 Days After Application, CHEAL

SMILES	pest or weed control at 140 g/ha
C#Cc1ccc(-c2ccc(Cl)c(C(=O)OC)n2)c(Cl)c1 [F18, Methyl 3-chloro-6-(2-chloro-4-ethynylphenyl) picolinate]	0 to 29%
COC(=O)c1nc(-c2ccc(C(F)(F)F)cc2Cl)ccc1C [F53, Methyl 6-(2-chloro-4-(trifluoromethyl)phenyl)-3-methylpicolinate]	95 to 100%

Same assay, conditions: post-emergence, 336 h, CIRAR: canada thistle (Cirsium arvense), 140 g ai/ha, 14 days after application, read-out: Visual Growth Reduction (%) 14 Days After Application, CIRAR

SMILES	pest or weed control at 140 g/ha
C#Cc1ccc(-c2ccc(Cl)c(C(=O)OC)n2)c(Cl)c1 [F18, Methyl 3-chloro-6-(2-chloro-4-ethynylphenyl) picolinate]	0 to 29%
COC(=O)c1nc(-c2ccc(C(F)(F)F)cc2Cl)ccc1C [F53, Methyl 6-(2-chloro-4-(trifluoromethyl)phenyl)-3-methylpicolinate]	95 to 100%

Same assay, conditions: post-emergence, 336 h, CYPES: yellow nutsedge (Cyperus esculentus), 140 g ai/ha, 14 days after application, read-out: Visual Growth Reduction (%) 14 Days After Application, CYPES

SMILES	pest or weed control at 140 g/ha
C#Cc1ccc(-c2ccc(Cl)c(C(=O)OC)n2)c(Cl)c1 [F18, Methyl 3-chloro-6-(2-chloro-4-ethynylphenyl) picolinate]	0 to 29%
COC(=O)c1nc(-c2ccc(C(F)(F)F)cc2Cl)ccc1C [F53, Methyl 6-(2-chloro-4-(trifluoromethyl)phenyl)-3-methylpicolinate]	0 to 29%

Same assay, conditions: post-emergence, 336 h, DIGSA: crabgrass (Digitaria sanguinalis), 140 g ai/ha, 14 days after application, read-out: Visual Growth Reduction (%) 14 Days After Application, DIGSA

SMILES	pest or weed control at 140 g/ha
C#Cc1ccc(-c2ccc(Cl)c(C(=O)OC)n2)c(Cl)c1 [F18, Methyl 3-chloro-6-(2-chloro-4-ethynylphenyl) picolinate]	0 to 29%
COC(=O)c1nc(-c2ccc(C(F)(F)F)cc2Cl)ccc1C [F53, Methyl 6-(2-chloro-4-(trifluoromethyl)phenyl)-3-methylpicolinate]	95 to 100%

Same assay, conditions: post-emergence, 336 h, ECHCG: barnyardgrass (Echinochloa crus-galli), 140 g ai/ha, 14 days after application, read-out: Visual Growth Reduction (%) 14 Days After Application, ECHCG

SMILES	pest or weed control at 140 g/ha
COC(=O)c1nc(-c2ccc(C(F)(F)F)cc2Cl)ccc1C [F53, Methyl 6-(2-chloro-4-(trifluoromethyl)phenyl)-3-methylpicolinate]	0 to 29%

Same assay, conditions: post-emergence, 336 h, KCHSC: kochia (Bassia scoparia), 140 g ai/ha, 14 days after application, read-out: Visual Growth Reduction (%) 14 Days After Application, KCHSC

SMILES	pest or weed control at 140 g/ha
COC(=O)c1nc(-c2ccc(C(F)(F)F)cc2Cl)ccc1C [F53, Methyl 6-(2-chloro-4-(trifluoromethyl)phenyl)-3-methylpicolinate]	0 to 29%

Same assay, conditions: post-emergence, 336 h, ORYSA: rice (Oryza sativa), 140 g ai/ha, 14 days after application, read-out: Visual Growth Reduction (%) 14 Days After Application, ORYSA

SMILES	pest or weed control at 140 g/ha
COC(=O)c1nc(-c2ccc(C(F)(F)F)cc2Cl)ccc1C [F53, Methyl 6-(2-chloro-4-(trifluoromethyl)phenyl)-3-methylpicolinate]	0 to 29%

Same assay, conditions: post-emergence, 336 h, SETFA: giant foxtail (Setaria faberi), 140 g ai/ha, 14 days after application, read-out: Visual Growth Reduction (%) 14 Days After Application, SETFA

SMILES	pest or weed control at 140 g/ha
COC(=O)c1nc(-c2ccc(C(F)(F)F)cc2Cl)ccc1C [F53, Methyl 6-(2-chloro-4-(trifluoromethyl)phenyl)-3-methylpicolinate]	0 to 29%

Same assay, conditions: post-emergence, 336 h, SORVU: grain sorghum (Sorghum vulgare), 140 g ai/ha, 14 days after application, read-out: Visual Growth Reduction (%) 14 Days After Application, SORVU

SMILES	pest or weed control at 140 g/ha
COC(=O)c1nc(-c2ccc(C(F)(F)F)cc2Cl)ccc1C [F53, Methyl 6-(2-chloro-4-(trifluoromethyl)phenyl)-3-methylpicolinate]	0 to 29%

Same assay, conditions: post-emergence, 336 h, STEME: common chickweed (Stellaria media), 140 g ai/ha, 14 days after application, read-out: Visual Growth Reduction (%) 14 Days After Application, STEME

SMILES	pest or weed control at 140 g/ha
COC(=O)c1nc(-c2ccc(C(F)(F)F)cc2Cl)ccc1C [F53, Methyl 6-(2-chloro-4-(trifluoromethyl)phenyl)-3-methylpicolinate]	0 to 29%

Same assay, conditions: post-emergence, 336 h, TRZAS: wheat, spring (Triticum aestivum), 140 g ai/ha, 14 days after application, read-out: Visual Growth Reduction (%) 14 Days After Application, TRZAS

SMILES	pest or weed control at 140 g/ha
COC(=O)c1nc(-c2ccc(C(F)(F)F)cc2Cl)ccc1C [F53, Methyl 6-(2-chloro-4-(trifluoromethyl)phenyl)-3-methylpicolinate]	0 to 29%

Same assay, conditions: post-emergence, 336 h, barnyardgrass (Echinochloa crus-galli), 14 Days After Application, 140 g ai/ha, read-out: Visual Growth Reduction (%) ECHCG

SMILES	pest or weed control at 140 g/ha
C#Cc1ccc(-c2ccc(Cl)c(C(=O)OC)n2)c(Cl)c1 [F18, Methyl 3-chloro-6-(2-chloro-4-ethynylphenyl) picolinate]	0 to 29%

Same assay, conditions: post-emergence, 336 h, common chickweed (Stellaria media), 14 Days After Application, 140 g ai/ha, read-out: Visual Growth Reduction (%) STEME

SMILES	pest or weed control at 140 g/ha
C#Cc1ccc(-c2ccc(Cl)c(C(=O)OC)n2)c(Cl)c1 [F18, Methyl 3-chloro-6-(2-chloro-4-ethynylphenyl) picolinate]	0 to 29%

Same assay, conditions: post-emergence, 336 h, giant foxtail (Setaria faberi), 14 Days After Application, 140 g ai/ha, read-out: Visual Growth Reduction (%) SETFA

SMILES	pest or weed control at 140 g/ha
C#Cc1ccc(-c2ccc(Cl)c(C(=O)OC)n2)c(Cl)c1 [F18, Methyl 3-chloro-6-(2-chloro-4-ethynylphenyl) picolinate]	0 to 29%

Same assay, conditions: post-emergence, 336 h, ivy-leaf morning glory (Ipomoea hederacea), 14 Days After Application, 140 g ai/ha, read-out: Visual Growth Reduction (%) IPOHE

SMILES	pest or weed control at 140 g/ha
C#Cc1ccc(-c2ccc(Cl)c(C(=O)OC)n2)c(Cl)c1 [F18, Methyl 3-chloro-6-(2-chloro-4-ethynylphenyl) picolinate]	0 to 29%

Same assay, conditions: post-emergence, 336 h, johnsongrass (Sorghum vulgare), 14 Days After Application, 140 g ai/ha, read-out: Visual Growth Reduction (%) SORVU

SMILES	pest or weed control at 140 g/ha
C#Cc1ccc(-c2ccc(Cl)c(C(=O)OC)n2)c(Cl)c1 [F18, Methyl 3-chloro-6-(2-chloro-4-ethynylphenyl) picolinate]	0 to 29%

Same assay, conditions: post-emergence, 336 h, kochia (Bassia scoparia), 14 Days After Application, 140 g ai/ha, read-out: Visual Growth Reduction (%) KCHSC

SMILES	pest or weed control at 140 g/ha
C#Cc1ccc(-c2ccc(Cl)c(C(=O)OC)n2)c(Cl)c1 [F18, Methyl 3-chloro-6-(2-chloro-4-ethynylphenyl) picolinate]	0 to 29%

Same assay, conditions: post-emergence, 336 h, rice (Oryza sativa), 14 Days After Application, 140 g ai/ha, read-out: Visual Growth Reduction (%) ORYSA

SMILES	pest or weed control at 140 g/ha
C#Cc1ccc(-c2ccc(Cl)c(C(=O)OC)n2)c(Cl)c1 [F18, Methyl 3-chloro-6-(2-chloro-4-ethynylphenyl) picolinate]	0 to 29%

Same assay, conditions: post-emergence, 336 h, wheat, spring (Triticum aestivum), 14 Days After Application, 140 g ai/ha, read-out: Visual Growth Reduction (%) TRZAS

SMILES	pest or weed control at 140 g/ha
C#Cc1ccc(-c2ccc(Cl)c(C(=O)OC)n2)c(Cl)c1 [F18, Methyl 3-chloro-6-(2-chloro-4-ethynylphenyl) picolinate]	0 to 29%

Reference: patent publication US20230017045A1, “PYRIDINE AND PYRIMIDINE CARBOXYLATE HERBICIDES AND METHODS OF USE THEREOF” (Dow AgroSciences LLC, priority 2017, published 2023)
